According to patent publication US20250129334A1, “LINEAGE SPECIFICATION DURING STEM CELL TRANSITION” (Amniotics AB, priority 2021, published 2025):

Tests used:
iPSC-CD34+ = assay: NK cell cytotoxic degranulation (CD107) with or without K562 co-culture; assay type: cell-based, human; conditions: absence of K562; DCA 10 mM, CP 2.5 μM, cholesterol 0.5x
Source text: NK cell anti-tumour activity can occur via cytotoxic degranulation. CD107 is a marker that is present in the cytotoxic vesicles of NK cells, and so is not expressed on the cell surface of inactivated NK cells. However, upon NK cell activation and degranulation, the CD107 target becomes detectable on the cell surface. Therefore, the level of CD107 detected on NK cells correlates with cytotoxic degranulation. In this assay, several exemplary metabolic regulators were used to assess cytotoxic degranulation in a co-culture assay with K562 cells (an exemplary cancer cell model). As a negative control, iPSC-CD34^+ untreated with a metabolic regulator were used, in which a basal level of 3.27% of degranulated NK cells (CD3^−CD56^+CD16^+CD107^+ cells) were observed (FIG. 16A, top panel).

HE cells = assay: Single HE cell clone assay on OP9-DL1 stroma; assay type: cell-based, human; conditions: day 14; total of 552 single cells per condition
Procedure: Sorted HE (40,000), EHT (30,000) and HSC-like (5-20,000) cells were plated onto Matrigel (16 μg/cm2, Corning)-coated 96-well flat bottom plates in HE medium with 1% penicillin-streptomycin and kept in a humidified incubator at 37° C., 5% C02, 4% 02 overnight. The following day (day 0), wells were washed twice with PBS and fresh HE medium was added, together with 2-DG (1 mM), UK5099 (10 μM), DCA (3 mM or 10 mM), TSA (60 nM), TCP (300 nM), ACSS2i (5 μM), C646 (10 μM), CP-640186 (5 μM) or Atorvastatin (0.5 μM), where indicated. Media was changed and drugs were added every 2 days and cells were kept in a humidified incubator at 37° C., 5% CO2, 20% O2 for 6-7 days. Pictures were taken using an Olympus IX70 microscope equipped with a CellSens DP72 camera and CellSens Standard 1.6 software (Olympus). For single cell subcultures, single HE cells were directly sorted with a BD FACSAriaIII onto OP9-DL1 stroma in flat-bottom 96-well plates with 120 μl OP9 medium (OptiMEM medium with Glutamax (Invitrogen) with 10% FCS, 1% penicillin-streptomycin solution (Thermo Fisher Scientific) and 1% 2-mercaptoethanol (Invitrogen)) with SCF, IL-6, IL-11, IGF1 and EPO, and with or without 10 μM UK, or 3 mM or 10 mM DCA. […] At day 14, the wells were collected and scored for GPA+ clones by flow cytometry, using a BD LSRII.

[1] = system: HBE1, HBG1-2, HBA1-2 transcripts; assay: Globin transcript q-PCR in CFU colonies; assay type: cell-based, human; conditions: normalized to KLF1, UK5099 10 μM
Procedure: Subcultured HE cells were treated with StemPro Accutase Cell Dissociation Reagent for 2 minutes at 37° C. and dissociated cells were resuspended in 3 ml Methocult H4230 (STEMCELL Technologies, France) (prepared according to manufacturer's instructions, with 20 mL Iscove's Modified Dulbecco's Medium containing 2.5 μg hSCF, 5 μg GM-CSF, 2.5 μg IL-3 and 500 U EPO). Each mixture was divided onto 2 wells of a non-tissue culture treated 6-well plate. Following a 12-day incubation in a humidified incubator at 37° C., 5% CO2, 20% O2, colonies were morphologically distinguished and scored. For globin analysis, colonies in Methocult wells were harvested with PBS, washed thoroughly and frozen in RLT buffer with β-mercaptoethanol. Following RNA extraction and RT (Qiagen), gene expression was assessed with taqman probes by q-PCR. The taqman probes used for this assay are HBA1/2 (Hs00361191_g1), HBE1 (Hs00362216_m1), HBG2/1 (Hs00361131_g1) and KLF1 (Hs00610592_m1).

fetal liver = assay: In vivo compound injection of pregnant mice, fetal liver analysis at E14.5
Procedure: For fetal liver analysis, pregnant female C57Bl/6xB6.SJL mice were injected intraperitoneally at E9.5 with UK5099 (4 mg/kg) or DCA (200 mg/kg) or PBS (control). Embryos were harvested at E14.5 and individually weighed and processed. Fetal livers were dissected and homogenised in 800 μL ice cold PBS supplemented with 2% fetal bovine serum (FBS) and FL cells were washed in PBS with 2%/FBS. For the differentiated lineage panel, cells were stained with B220 and CD19 (B-cell markers)-PE, CD3e-APC, Ter119-PeCy7 and CD71-FITC and analyzed on a BD FACSARIA III. For the HSC panel, samples were first treated with ammonium chloride solution (STEMCELL Technologies, France) to lyse red blood cells, washed twice in ice cold PBS with 2% FBS, stained with CD3e, B220, Ter119, Gr1 (Lineage)-PeCy5, c-Kit-Efluor780, Sca1-BV421, CD48-FITC, CD150-BV605 and 7-AAD (for dead cell exclusion) and analyzed on a BD FACSARIA III. […] For plating of CFU assays, 100 LT-HSCs were sorted (gating strategy shown in FIG. 11, e) and resuspended in 3.0 mL Methocult M3434 (STEMCELL Technologies, France). Each mixture was divided onto 2 wells of a non-tissue culture treated 6-well plate. Following a 14-day incubation in a humidified incubator at 37° C., 5% CO2, 20% O2, colonies were morphologically distinguished and scored. […] Cells were stained with anti-cKit and anti-CD45 antibodies and analyzed on a BD LSRFortessa. […]

| SMILES | degranulated NK cells (CD3-CD56+CD16+CD107+ cells) (iPSC-CD34+) | increase in degranulated NK cells vs untreated control (iPSC-CD34+) | GPA+ clones (HE cells) [clones] | HBE1 (embryonic) globin transcripts [1] | HBG1-2 (fetal) globin transcripts [1] | HBA1-2 (adult globin) expression ([1]; DCA 3 mM) | frequency of phenotypic long-term HSCs (LT-HSCs) (fetal liver; LSK CD48-CD150+, UK5099 4 mg/kg, DCA 200 mg/kg) | in vivo EHT and hematopoiesis (fetal liver; UK5099 4 mg/kg i.p. at E9.5) |
| --- | --- | --- | --- | --- | --- | --- | --- | --- |
| O=C(O)C(Cl)Cl [DCA, dichloroacetate] | 13.8 % of the population | more than 4 fold | 7 | – | – | – | – | – |
| N#CC(=Cc1cn(-c2ccccc2)c2ccccc12)C(=O)O [UK5099, 2-Cyano-3-(1-phenyl-1H-indol-3-yl)-2-propenoic acid] | – | – | 12 | significant increase | significant increase | did not have an effect | not significantly affected | did not see a significant effect |
